This is an account of results in patent US12139531B2, “Compositions and methods useful in promoting milk production” (The Regents of the University of California, priority 2019, dated 2024).

In assay [1] the test system is NOTCH4. The assay is described as follows: Cell fractionation and Western blot for HES1 and NOTCH4-ICD in HC11 cells. It is filed as cell-based, mouse. The following applies: siR1+GSI, primed/differentiated HC11 cells, nuclear fraction. As to the method: Notch receptor activation can be regulated through direct interactions with binding partners^24. […] To address this possibility, co-immunoprecipitation experiments were performed using MBA-MD-231 cells lysates, which express detectable levels of all four Notch receptors (NOTCH1-4). Endogenous ROBO1 co-immunoprecipitated with NOTCH4, but not […], NOTCH2 or NOTCH3 (FIG. 3H and data not shown). Next, the expression and subcellular localization of the NOTCH4 intracellular domain (N4-ICD) and HES1 was examined in control (Scr) and Robo1 (siR1) knockdown HC11 cells. Expression of Robo1 was inhibited in HC11 cells that were then primed for differentiation as described above. […] This effect was not observed in control Robo1 knockdown cells engineered to overexpress Robo1 (siR1+o/e) or cells treated with the γ-secretase inhibitor GSI (siR1+GSI) (FIGS. 3I-3K).
To examine the effects of ROBO1-ECD fragments on Notch signaling, HC11 cells were treated with ROBO1-ECD fragments and Notch effector expression assessed. […] In addition, HC11 cells were treated with ROBO-Ig5 during differentiation. These cells were then fractionated and a Western blot performed to detect HES1 and NOTCH4-ICD (FIG. 8B).
Protein lysates were prepared by directly lysing adherent cells in 1× sample buffer supplemented with 5% beta-mercaptoethanol and boiled for 5 minutes. Protein lysate was resolved by SDS-PAGE and transferred to a PVDF for 90 minutes at 400 mA or overnight at 30 mA. Primary antibodies were used at the concentration indicated in Table 1 and incubated overnight at 4° C. HRP conjugated secondary antibodies (Jackson Labs) were used at 1:3000 and incubated for 45 minutes at room temp. All proteins were detected using Clarity ECL (BioRad) using a BioRad Chemi-Doc MP Imager and quantified using ImageLab software as previously described a.
Background: In western blotting, separated proteins are transferred to a membrane and probed.

The test system of assay [2] is HC11 cells. The assay is described as follows: HC11 dome assay (milk dome formation on differentiation in DIP media). It is filed as cell-based, mouse. Particulars: for dome formation in response to a titration of ECD fragments: HC11 cells, increasing ECD concentration. As to the method:
To investigate ROBO1 function during alveologenesis, Robo1 gene expression was inhibited in HC11 cells (Robo1 KD). HC11 cells are a well-established, prolactin-responsive model of lactation,^19,20. Cells in which Robo1 gene expression was not inhibited are referred to as WT or Robo1+/+ herein. To measure milk production, cells were grown to confluence and then primed by treatment with epidermal growth factor (EGF, 10 ng/ml). The EGF is administered for three days in combination with charcoal-stripped fetal bovine serum, followed by one day of charcoal-stripped fetal bovine serum in the absence of EGF. These primed cells are then differentiated by treatment with dexamethasone (1 μg/ml), insulin (5 μg/ml) and prolactin (Prl, 5 μg/ml) media (DIP media) for between 3 and 5 days (FIG. 2A). Differentiation (Dif) results in the development of milk-filled domes (FIG. 2B). […] If the cells were left undifferentiated (Undif), there was little dome formation in either WT or Robo1−/− cells (FIG. 2B). Next, tissue from Robo1 knockout mice (Robo1−/−) and wild type mice (WT or Robo1+/+) mice was analyzed. Mammary glands were harvested from pregnant day 18 WT and Robo1−/− animals and alveologenesis analyzed by serially sectioning, carmine staining and then quantifying the area occupied by alveoli in sections located at top, middle and bottom portions of the tissue.
Dome number formation in response to a titration of ROBO1 ECD fragments was quantified. […] A bovine ROBO1-Ig5 construct was also tested in this assay and, as with the rat constructs, more domes were formed in response to treatment with higher concentrations of […] (FIG. 7H).
(§1) HC11 cells were grown in RPMI 1640 media (Gibco) supplemented with 10% fetal bovine serum (BioFluid Technologies), 5 μg/mL insulin (Sigma), and 10 ng/ml epidermal growth factor (EGF; Sigma). To induce differentiation in HC11 cells, confluent plates were given fresh media (RPMI 1640 media supplemented with 5% charcoal-stripped fetal bovine serum (BioFluid Technologies), 5 μg/mL insulin, and 10 ng/ml epidermal growth factor (EGF; Sigma) for 3 days followed by 24 hours of priming in priming medium (RPMI 1640 media supplemented with 5% charcoal-stripped fetal bovine serum (BioFluid Technologies), and 5 μg/mL insulin. After priming, DIP medium (RPMI 1640 media supplemented with 5% charcoal-stripped fetal bovine serum (BioFluid Technologies), 10^−6 M dexamethasone (Sigma), 5 μg/mL insulin, and 5 μg/mL prolactin (National Hormone and Peptide program) was added with fresh media every 24 hours.

Assay [3] relates to Notch. The assay is described as follows: In vivo gamma secretase inhibitor treatment; number of FACS-purified alveolar progenitor cells. Details: species or system mice. The following applies: 10 mg/kg GSI orally, mature virgin. As to the method: (§2) In further work, Notch signaling was inhibited to attempt to reverse the Robo1−/− phenotype. A γ-inhibitor that has been previously employed successfully in vivo to inhibit Notch in several different organs^26-28, including the mammary gland^29, was selected. Mature virgin animals were treated for […] with 10 mg/kg of the GSI or vehicle control^29 (FIG. 4C). After the treatment, mammary glands were harvested and analyzed by FACS and qPCR. It was observed that Robo1−/− mammary glands contain a higher number of alveolar progenitor cells relative to WT controls (FIG. 4D). […] GSI treatment had no effect on the number of alveolar progenitor cells in WT animals (FIG. 4D).
Mechanically dissociated inguinal and thoracic mammary fat pads were prepared into cell suspension for FACS as described^17. AVPs were isolated using FITC-CD14 (clone Sa14-2; BioLegend) and […] (clone 2B8; BioLegend) as described^14.
(§3) GSI inhibitor (R04929097; MedchemExpress) was orally administer at 10 mg/kg for 5 days as described^29. Mammary glands were harvest after 5 days of GSI or vehicle treatment and prepared for single cell analysis. Purified populations were collected and processed for RNA. Purified population numbers were analyzed using FlowJo.

Assay [4] has as its system Notch signaling. The assay is described as follows: In vivo gamma secretase inhibitor treatment; RT-qPCR on FACS-purified alveolar progenitor cells. Set-up: species or system mice. The following applies: GSI-treated vs vehicle-treated. As to the method:
as §2
Robo1−/− alveolar progenitor cells (AVPs) expressed higher levels of Hey1 and Hes1 with vehicle treatment compared to AVPs from vehicle-treated WT animals (FIG. 4E). […] Vehicle-treated Robo1−/− alveolar progenitor cells (AVPs) expressed lower levels of Elf5 than AVPs from vehicle-treated WT animals (FIG. 4E). This is consistent with the observation of lower levels of ELF5 expression in Robo1−/− compared to Robo1+/+ mammary glands (FIG. 2H), and lower Elf5 in Robo1 knockdown compared to control (Scr) HC11 cells (FIG. 3C). […] In the absence of Robo1, NOTCH4 is activated—an effect that is reversed by either pharmacological inhibition of Notch signaling (FIGS. 4E, 3E, 3F, 3I-K) or knockdown of Notch4 gene expression (FIGS. 3F,G).
as §3
(§4) Total RNA was harvested from cells lysed in TRIzol reagent (Invitrogen) and phase separated according to manufacturer's protocol with an additional overnight RNA precipitation stem in ethanol (Macias et al., 2011). The RNA was further purified with TURBO DNase (Ambion) treatment. Total RNA quality was analyzed by agarose gel electrophoresis and quantified with an ND-1000 spectrophotometer (NanoDrop). cDNA libraries were prepared from 1 μg of total RNA using iScript cDNA synthesis kit (BioRad). Quantitative RT-PCR was performed in triplicates using light Cycler 480 SYBR Green I Master (Roche) and quantified using BioRad CFX'Connect Real-Time System and CFX Manager software (BioRad). Results were normalized to GAPDH.
(Real-time PCR tracks product formation cycle by cycle.)

Assay [5] has as its system HC11 cells. The assay is described as follows: RT-qPCR of milk genes (WAP, Lalba) in differentiated HC11 cells. It is filed as cell-based, mouse. As to the method: To determine whether the promotion of dome formation also results in higher milk production, HC11 cells were differentiated in the presence or absence of ROBO1-ECD fragments that were added to cells simultaneously with DIP media. Cells were harvested and the expression of WAP and Lalba assessed by RT-qPCR. […] WAP expression levels were not increased in cells treated with DCC-Ig4 (FIG. 7K). Next, Western blot analysis of WAP and PLIN2 was performed on cells treated with ROBO1-Ig5 and ROBO1-Ecto.
as §1
as §4, with “Results were normalized to GAPDH.” left out

Assay [6] concerns HEK-293 cells. Nature of the assay: Dot blot dilution assay of ROBO1-Ig5 secretion into media of transfected HEK-293 cells. The assay is classed as cell-based. The following applies: heparin 300 ng/ml, media days two, four, six. An excerpt: Three recombinant ROBO1 ECD constructs were constructed: one comprising two immunoglobulin (Ig) domains (ROBO1-Ig2), another comprising all five Ig domains (ROBO1-Ig5), and another comprising the entire extracellular domain (ROBO1-Ecto) (FIG. 6A). In other constructs, HA (hemagglutinin), Myc, and human and mouse immunoglobulin Fc were fused to the Robo1 ECDs (FIG. 6A, 5F right). Extracellular domains of Deleted in Colorectal Cancer (DCC), a structurally similar Ig superfamily member to ROBO1, comprising either two Ig (DCC-Ig2) or four Ig (DCC-Ig4) domains and tagged with HA were constructed for use as negative controls (FIG. 6A, 5F right). Expression secretion of the constructs was confirmed by overexpressing the constructs in HEK293 cells and performing Western blots on cell lysates and media (FIG. 6B). […] Robo1-Ig5 as used herein was expressed in HEK-293 cells in the absence and presence of heparin (300 ng/ml). Media were collected from these ROBO1-Ig5 overexpressing cells on days two, four and six following plasmid transfection. Dot blot dilution assays of the collected media were performed to evaluate the relative secretion of this soluble ROBO1 ECD (FIG. 6C).

“Also recorded” adds a separate entry of the source.

With `CC(C)(C(=O)NCC(F)(F)C(F)(F)F)C(=O)N[C@@H]1C(=O)Nc2ccccc2-c2ccccc21` [GSI], in assay [1], the “higher nuclear HES1 in Robo1 knockdown cells” value is “not observed; also recorded: rescues the effect” and the “higher nuclear NOTCH4 intracellular domain (N4-ICD) in Robo1 knockdown cells” value was “not observed; also recorded: rescues the effect”. The “decreased dome formation in Robo1 knockdown (KD) HC11 cells” value in assay [2] (Robo1 KD HC11 cells plus GSI) is reported as “rescued”. Besides, the “number of alveolar progenitor cells” value in assay [3] (Robo1-/- animals) is recorded as “same number of alveolar progenitor cells as WT animals”. For the same molecule, in assay [3] (WT animals), the “number of alveolar progenitor cells” value was “no effect”. Moreover, in assay [4] (Robo1+/+ animals), the “Hes1 expression in AVPs” value is listed as “less expression; also recorded: decreased” and the “Hey1 expression in AVPs” value was “less expression; also recorded: decreased”. In assay [4] (Robo1-/- animals), the “Elf5 expression in AVPs” value was “higher; also recorded: rescued”, the “Hes1 expression in AVPs” value is on record as “lower; also recorded: rescued” and the “Hey1 expression in AVPs” value is on record as “lower; also recorded: rescued”. For the same molecule, in assay [5] (siR1+GSI), the “decreased Lalba expression in Robo1 knockdown (siR1) HC11 cells” value is “rescued” and the “decreased WAP expression in Robo1 knockdown (siR1) HC11 cells” value is given as “rescued”.
heparin: the entries for the “secretion of soluble ROBO1-Ig5” value in assay [6] and in assay [6] (listed as Heparin) were “trend of greater secretion” and “modestly increases”, respectively.

B1: DCC-Ig4: extracellular domain of Deleted in Colorectal Cancer comprising four Ig domains, HA tagged, negative control (protein, listed as Rattus norvegicus)
chain: FTSLHFVSEPSDAVTMRGGNVLLNCSAESDRGVPVIKWKKDGLILALGMDDRKQQLPNGSLLIQNILHSRHHKPDEGLYQCEASLGDSGSIISRTAKVMVAGPLRFLSQTESITAFMGDTVLLKCEVIGDPMPTIHWQKNQQDLNPIPGDSRVVVLPSGALQISRLQPGDSGVYRCSARNPASTRTGNEAEVRILSDPGLHRQLYFLQRPSNVIAIEGKDAVLECCVSGYPPPSFTWLRGEEVIQLRSKKYSLLGGSNLLISNVTDDDSGTYTCVVTYKNENISASAELTVLVPPWFLNHPSNLYAYESMDIEFECAVSGKPVPTVNWMKNGDVVIPSDYFQIVGGSNLRILGVVKSDEGFYQCVAENEAGNAQSSAQLI
modifications: HA tag
notes: extracellular domain of Deleted in Colorectal Cancer comprising four Ig domains, HA tagged, negative control
Regarding B1, the “dome formation in response to a titration of ECD fragments” value in assay [2] is given as “not observed”. Also, the “WAP gene expression by RT-qPCR” value in assay [5] (HC11 cells, ECD fragments added simultaneously with DIP media, DCC-Ig4 0.7 μM) was “not increased; also recorded: no change”.

B2: bovine ROBO1-Ig5: bovine ROBO1-Ig5 construct (Bos taurus ROBO1-Ig5, SEQ ID NO: 2) (protein, listed as Bos taurus)
chain: MIAEPAHFYLFGLICLCSGSRLRQEDFPPRIVEHPSDLIVSKGEPATLNCKAEGRPTPTIEWYKGGERVETDKDDPRSHRMLLPSGSLFFLRIVHGRKSRPDEGVYVCVARNYLGEAVSHNASLEVAILRDDFRQNPSDVMVAVGEPAVMECQPPRGHPEPTISWKKDGSPLDDKDERITIRGGKLMITYTRKSDAGKYVCVGTNMVGERESEVAELTVLERPSFVKRPSNLAVTVDDSAEFKCEARGDPVPTVRWRKDDGELPKSRYEIRDDHTLKIRKVTAGDMGSYTCVAENMVGKAEASATLTVQVGSEPPHFVVKPRDQVVALGRTVTFQCEATGNPQPAIFWRREGSQNLLFSYQPPQSSSRFSVSQTGDLTITNVQRSDVGYYICQTLNVAGSIITKAYLEVTDVIADRPPPVIRQGPVNQTVAVDGTLVLSCVATGSPVPTILWRKDGVLVSTQDSRIKQLETGVLQIRYAKLGDTGRYTCIASTPSGEATWSAYIEVQEF
Consider B2, for which the “dome formation in response to a titration of ECD fragments” value in assay [2] is given as “more domes; also recorded: increasing dome formation”.
